Assay results from patent US9463188B2, “Osteopontin production inhibitor containing dictyopyrone derivative or dihydrodictyopyrone derivative as active ingredient” (TOHOKU UNIVERSITY, priority 2013, dated 2016).

What was measured:
[1] = system: human OPN promoter (pOPN1-luc) in A549/OPNluc cells; assay: Luciferase assay: luciferase expression under control of OPN promoter; assay type: cell-based; conditions: for EC50 value relative to respective IC50 value: EC50 luciferase assay vs IC50 WST assay; for EC50: Homo sapiens, 48±4 hours, read-out: EC50 (concentration for 50% inhibition of luciferase expression under control of OPN promoter)
From the text: (§1) A reporter vector pOPN1-luc obtained by inserting a human OPN promoter sequence (−765 to 23) into the multiple cloning site of pGL-3 basic vector (Promega) expresses luciferase when transfected into animal cells. This pOPN1-luc was transfected into a human non-small cell lung cancer-derived cell line A549 together with pPUR (Clontech) that expresses a puromycin resistance gene (puromycin-N-acetyl-transferase gene), and cells that could grow in a puromycin-supplemented medium and expressed luciferase were selected. The selected cells were named A549/OPNluc cells and used for observation of luciferase expression inhibitory effect under control of OPN promoter, as described later.
(§2) A test compound was added to a culture liquid containing A549/OPNluc cells to observe its influence on the amount of luciferase expressed in the cells. Here, it can be considered that when the test compound has cytotoxity or cell growth-suppressing effect, the total expression level of luciferase is reduced due to a reduction in the number of living cells that depends on the concentration of the test compound, and therefore the luciferase expression inhibitory effect of the test compound under control of OPN promoter cannot be properly evaluated. For this reason, WST assay for quantification of cell proliferation ability or cell viability by colorimetric measurement was first performed to determine IC50 (concentration for 50% inhibition of cell growth) of the test compound for cell growth. Then, luciferase activity measurement was performed to determine EC50 (concentration for 50% inhibition of luciferase expression) of the test compound for luciferase expression under control of OPN promoter.
The same steps as in the above-described WST assay were performed in which only DMSO (control) or the diluted test compound (sample) solution was added in an amount of 0.5 μL to each well containing the cell suspension to achieve 200-fold dilution, and the solution in each well was mixed with a vortex mixer, and the 96-well plate was incubated in a CO2 incubator (at 37° C. and 5% CO2) for 48±4 hours.
A luciferase reagent was prepared by dissolving Luciferase Assay Substrate (hereinafter, referred to as “LAS”) supplied in Luciferase Assay Systems (Promega: Cat# E1500) with Luciferase Assay Buffer (LAB). 5× Cell Culture Lysis Reagent (hereinafter, referred to as “CCLR”) was diluted with water 5-fold to prepare 1×CCLR.
After the incubation for 48±4 hours, the medium in each well was completely removed, and 50 μL of 1×CCLR was dispensed into each well. The 96-well plate was allowed to stand at room temperature for 30 minutes, and then 1×CCLR in each well was used as an assay sample. The luciferase reagent of 100 μL was placed in a tube for chemiluminescence measurement, and 20 μL of the assay sample was added to the tube and mixed with the luciferase reagent to measure chemiluminescence (Relative Luminescence Intensity: RLU) using Tuner Design Luminometer 20/20 (Promega).
(§3) The RLU values of the control wells and the RLU values of the sample wells at each concentration were input into an Excel file, and the percentages of RLU values of the sample wells at each concentration with respect to the average of RLU values of the control wells were determined. From these values, a fitted curve was determined by the method of least squares to calculate EC50.

A549/OPNluc cells = assay: WST assay (cell growth inhibition); assay type: cell-based; conditions: Homo sapiens, 48±4 hours, WST-1, read-out: IC50 (concentration for 50% inhibition of cell growth)
From the text: as §1, §2
A549/OPNluc cells were suspended in DMEM medium containing 10% fetal calf serum (FCS) and 1% penicillin/streptomycin (P/S) at 3×10^4 cells/mL to obtain a cell suspension, and 100 μL of the cell suspension was dispensed into each well of a 96-well plate. In order to perform the assay in triplicate, 3 wells were prepared for a control group and 3 wells were prepared for each test compound-treated group at each concentration. After the dispensing, the 96-well plate was incubated in a CO2 incubator (at 37° C. and 5% CO2) for 24±4 hours.
The test compound was dissolved in dimethylsulfoxide (DMSO) to obtain a 50 mmol/L solution, and the test compound solution was stored at −80° C. The test compound solution was diluted with DMSO in 2-fold dilution series (usually, in the range of 0.31 mmol/L to 20 mmol/L) to prepare test compound solutions whose concentration varied by two fold for WST assay.
Only DMSO (control) or the diluted test compound (sample) solution was dispensed in an amount of 0.5 μL into each well containing the cell suspension (200-fold dilution). The solution in each well was mixed with a vortex mixer, and then the 96-well plate was incubated in a CO2 incubator (at 37° C. and 5% CO2) for 48±4 hours. Then, 10 μL of Premix WST-1 Reagent (TAKARA BIO INC.) was added to each well. The solution in each well was mixed with a vortex mixer, and then the 96-well plate was incubated at 37° C. and 5% CO2. After 60 minutes or 120 minutes, absorbance values (450 nm) were measured using a microplate reader (Bio-Rad; Benchmark or Thermo Scientific; Varioskan Flash).
as §3, with “absorbance” for “RLU”, “file to determine” for “file, and”, “wells.” for “wells were determined.”, “the determined” for “these”, “IC50.” for “EC50.”

| Compound | EC50 value relative to respective IC50 value [1] | EC50 [1] [µM] | IC50 (A549/OPNluc cells) [µM] |
| --- | --- | --- | --- |
| CCCCCCCCCCCC(=O)[C@@H]1C(=O)O[C@@H](C)C[C@H]1C [Chemical formula 12] | – | > 50 | > 50 |
| COC(=O)CCCCCCC(=O)C1=C(C)C[C@H](C)OC1=O [Chemical formula 9, methyl (S)-8-(4,6-dimethyl-2-oxo-5,6-dihydro-2H-pyran-3-yl)-8-Oxooctanoate] | – | > 100 | > 100 |
| CCCCCCCC(=O)C1=C(C)C[C@H](C)NC1=O [Chemical formula 11, (S)-5,6-dihydro-4,6-dimethyl-3-octanoyl-1H-pyridin-2-one] | – | > 100 | > 100 |
| CCCCCCCCCCCC(=O)[C@H]1C(=O)O[C@H](C)C[C@@H]1C [Chemical formula 13] | – | > 50 | > 50 |
| CCCCCCCC(=O)C1=C(C)C[C@H](C)OC1=O [Chemical formula 7] | – | > 100 | > 100 |
| CCCC(=O)C1=C(C)C[C@H](C)OC1=O [Chemical formula 6] | – | > 100 | > 100 |

Further molecules by falling EC50 [1], results first:

| EC50 value relative to respective IC50 value [1] | EC50 [1] [µM] | IC50 (A549/OPNluc cells) [µM] | Compound |
| --- | --- | --- | --- |
| – | 63 | 129 | CCCCCCCCCCCC(=O)C1=C(C)C[C@H](C)OC1=O [Chemical formula 5] |
| – | 63 | 110 | CCCC(=O)C1=C(C)C[C@H](C)NC1=O [Chemical formula 10, (S)-3-butanoyl-5,6-dihydro-4,6-dimethyl-1H-pyridin-2-one] |
| ½ | 55 | 111 | CCCCCCCCCCCC(=O)C1=C(C)C[C@@H](C)OC1=O [Chemical formula 8] |
| ½ | 43.4 | 88 | CCCCCCCCCCCC(O)[C@H]1C(=O)O[C@@H](C)C[C@@H]1C (stereo partly drawn) [Chemical formula 15] |
| ½ | 31.1 | > 100 | CCCCCCCCCCC/C(OC(C)=O)=C1\C(=O)O[C@@H](C)C[C@@H]1C [Chemical formula 16] |
| – | 29.5 | 54.1 | CCCCCCCCCCCC(=O)[C@H]1C(=O)OC(C)(C)C[C@@H]1C [Chemical formula 14] |
| ½ | 29.5 | 59.1 | CCCCCCCCCCCC(=O)C1=C(C)C[C@H](C)NC1=O [Chemical formula 2] |
| ½ | 24.4 | 129 | CCCCCCCCCCCC(=O)C1=C(C)CC(C)(C)OC1=O [Chemical formula 1] |
| ½ | 19.7 | 42.5 | CCCCCCCCCCCC(=O)[C@@H]1C(=O)N[C@@H](C)C[C@H]1C [Chemical formula 4] |
